These results are taken from PubChem BioAssay (NCI).

For this assay, the system named is MDA-MB-468 breast. The assay can be described thus: growth of human tumour cells (NCI), 48 h.

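How tested: cells in 96-well plates exposed to compound for 48 hours at five concentrations. GI50 marks 50% less growth. The concentration for full growth arrest is given as TGI.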

For the compound `NC(=O)c1cc([N+](=O)[O-])c(Cl)c([N+](=O)[O-])c1`, the GI50 was 1670 nM and the TGI worked out at 3320 nM.

With `CN(C)c1ccc(-c2cc(-c3ccc(Nc4nc(Nc5ccccc5)nc(Nc5ccc(Cl)cc5)n4)cc3)nc(N)n2)cc1`, the GI50 is 7910 nM and the TGI was greater than 100000 nM.

Take `O=C1/C(=C/c2ccccc2F)CNC/C1=C\c1ccccc1F`: the GI50 is 626 nM and the TGI was determined as 2750 nM.

On to `N#Cc1c2cccnc2c2nnc3cc(Cl)c(Cl)cc3n12`, for which the GI50 was 1100 nM and the TGI amounted to 2590 nM.

As to `CCCCCc1ccc(S(=O)(=O)Nc2cccc(-c3csc(NCCN4CCN(C)CC4)n3)c2)cc1`, the GI50 was 1630 nM and the TGI was found to be 3160 nM.

On to `COc1ccn2c(C(C)=O)cc(C(=O)c3ccc4c(c3)Sc3ccccc3N4)c2c1`, for which the GI50 is 159 nM and the TGI was greater than 24800 nM.

On to `CC(C)(C)c1cc(NC(=O)Nc2ccc(-c3cn4c5c(sc4n3)CCc3c[nH]cc3-5)cc2)no1`, for which the GI50 is 1970 nM and the TGI came out at 32800 nM.

As to `C[C@H]1[C@H](C)CC[C@]2(C(=O)N3CCN(C)CC3)CC[C@]3(C)C(=CC[C@@H]4[C@@]5(C)C/C(=C/c6cccnc6)C(=O)C(C)(C)[C@@H]5CC[C@]43C)[C@H]12`, the GI50 was 665 nM and the TGI came to 2040 nM.

`COc1cc(C(O)c2nc3ccccc3s2)cc(OC)c1OC` (stereo unspecified): the GI50 was 5680 nM and the TGI was 57200 nM.

`O=C(CCCCCCSc1nc(-c2ccccc2)cc(-c2ccccc2)n1)NO`: the GI50 is 2770 nM and the TGI came to 10500 nM.

Turning to `COc1ccc2c(c1)c(-c1nc(-c3c[nH]c4ncccc34)cs1)cn2CCCCN1CCOCC1`, the GI50 is 1950 nM and the TGI stood at 3980 nM.

Regarding `COc1ccc(C(=O)COc2cccc(/C=C3\CSc4ccccc4C3=O)c2)cc1`, the GI50 was 1420 nM and the TGI is 2930 nM.

Consider `C[C@]12CC[C@@H]3c4ccc(O)cc4CC[C@H]3[C@@H]1CC[C@@H]2NS(=O)(=O)c1cccc(C(F)(F)F)c1`, for which the GI50 was 4080 nM and the TGI is 16900 nM.

In the case of `COc1ccc(C/C(C)=C(\c2ccc(OCCN3CCOCC3)cc2)c2ccc(OC(=O)Cc3ccccc3)cc2)cc1`, the GI50 is 514 nM and the TGI stood at 1470 nM.

Take `COc1cc(Cn2c(=S)ss/c2=N\C(=S)N(C)C)cc(OC)c1OC`: the GI50 is 7040 nM and the TGI was greater than 100000 nM.

As to `CCN(CCNc1ccc(C)c2sc3cc(Cl)ccc3c(=O)c12)CC(C)O` (stereo unspecified), the GI50 is 1740 nM and the TGI worked out at 3390 nM.

With `CC1=CCC(OC(=O)C(C)(C)CCC(O)(C(=O)OC2(C(C)C)CCC3(C)OC3C2)C(C)C)(C(C)C)CC1` (stereo unspecified), the GI50 was 351 nM and the TGI turned out to be 1240 nM.

Take `CC(C)[C@@]12C[C@@H](OC(=O)COC(=O)/C=C/c3ccccc3)[C@@](C)(O1)[C@@H]1CC[C@@H](C)[C@H]1[C@@H]2OC(=O)/C=C/c1ccccc1`: the GI50 was greater than 61400 nM and the TGI is greater than 100000 nM.

In the case of `C/C(=C\c1ccn(-c2ccc(N)c(F)c2)n1)[C@@H]1C[C@@H]2O[C@]2(C)CCC[C@H](C)[C@H](O)[C@@H](C)C(=O)C(C)(C)[C@@H](O)CC(=O)O1`, the GI50 was 9.96 nM.

Turning to `CCN1CCN(CC(=O)Nc2nc3ccc(NCc4ccc(Cl)cc4)cc3s2)CC1`, the GI50 is 1770 nM and the TGI was found to be 4610 nM.

For the compound `NC1=C(Br)C(=O)c2ncccc2C1=O`, the GI50 is 570 nM and the TGI is 2130 nM.
